Source: US20130310374A1, “Substituted Imidazoquinoline Derivatives” (PIRAMAL ENTERPRISES LIMITED`, priority 2010, published 2013)

System: human PANC-1 xenograft tumors
Assay: Pancreatic cancer xenograft model (tumor growth inhibition in vivo)
Set-up: species or system mouse
Conditions: SCID mice, 3 mpk once daily p.o., 14 days; FIG. 3B
Method: Animals: Severe combined immunodeficient (SCID) mice (Male and Female) 6 to 8 weeks old, were used. Animals were housed in suitable cages under specified pathogen-free conditions in rooms maintained at 23° C. and 50% humidity, with a 12-hour light/12-hour dark cycle. The mice were quarantined during the acclimatization period of at least a week.
Pancreatic Cancer xenograft model: The human pancreatic carcinoma cells, (PANC-1) (ATCC) were grown in Eagle's Minimum Essential Medium (SAFC, US) supplemented with 10% (v/v) fetal bovine serum. The cells were incubated at 37° C. in a humidified atmosphere containing 5% CO2. […]
Tumor-bearing mice were randomized in two groups when the mean tumor weight was ˜100 mg. […] Twice a week, each xenograft was measured in two dimensions (a=length; b=width) with a caliper. Tumor volume (V) was determined by the following equation:
Tumor volumes were converted into tumor weights assuming a tumor density of 1 mm^3=1 mg. Tumor growth inhibition (TGI) for each group was calculated according to the following formula: […]
Wherein, T and T0 are the mean tumor volumes on a specific experimental day and on day 1 of treatment, respectively, for the experimental groups. […] Animals in each group were observed every day for signs of health deterioration and animal weight was recorded daily. […]

CS(=O)(=O)O.Cn1c(=O)n(-c2ccc(C(C)(C)C#N)nc2)c2c3cc(-c4cnc(N)c(C(F)(F)F)c4)ccc3ncc21 [Example 3a, 8-(6-Amino-5-(trifluoromethyl)pyridin-3-yl)-1-(6-(2-cyanopropan-2-yl)pyridin-3-yl)-3-methyl-2-oxo-2,3-dihydro-1H-imidazo[4,5-c]quinolin-5-ium methanesulfonate]
Growth of pancreatic tumors, PANC-1 xenograft: effectively inhibited the growth of pancreatic tumors
